# Earlier results in US20100112033A1, “STENTS COATED WITH NO- AND S-NITROSOTHIOL-ELUTING HYDROPHLIC POLYMERIC BLENDS” (Universidade Estadual de Campinas UNICAMP, priority 2005, published 2010).
# What was measured:
# platelet aggregation = conditions: compared to non-nitrosated polymer
# neointimal formation = conditions: compared to non-nitrosated polymer
# stenosis = conditions: applied to damaged vascular site, rabbit coronary artery
# neointimal hyperplasia = conditions: patients, six months after stenting
Substance,reduction of platelet aggregation (platelet aggregation),reduction of neointimal formation (neointimal formation) [%],effect on stenosis (stenosis),neointimal hyperplasia (neointimal hyperplasia)
"bovine S-nitrosated albumin: nitrosated protein, a protein adduct of nitric oxide",50-70%,40,proved to reduce stenosis,–
sirulimus,–,–,–,minimal neointimal hyperplasia
